“And” between values parts separate entries of the source, which are not always exact repeats. Equal values may be shown once. Read-outs that look alike come from different tables or passages of the source. Marks after values point to notes of the source that are not given here. Some results are limits rather than exact numbers.

Assay [1] addresses T1, HIV-1 RT-associated RNase H activity (Human immunodeficiency virus type 1 group M subtype B, UniProt P04585).
T1 construct: The 1:1 ration between the p66/p51 subunits was also verified; made in house; host or cells: E. coli strain M15 with the p6HRT-prot vector
As to the kind of experiment: RNase H polymerase-independent cleavage assay. The assay is classed as biochemical. As to conditions: for IC50: compound concentration required to inhibit the HIV-1 RNase H activity by 50%; for remaining activity at 100 µM: read-out: HIV-1 RNase H percentage of control. As for the experimental part: HIV-1 RT group M subtype B. Heterodimeric RT was expressed and purified essentially as previously described. Briefly, protein was expressed in E. coli strain M15 containing the p6HRT-prot vector, induced with 1.7 mM isopropyl β-D-1-thiogalactopyranoside for 4 h. Protein purification was carried out with a BioLogic LP system (Biorad), using a combination of immobilized metal affinity and ion exchange chromatography. First, crude bacterial extract was clarified by centrifugation and loaded onto a Ni^2+-NTA-Sepharose column pre-equilibrated with a loading buffer (50 mM sodium phosphate buffer pH 7.8, containing 0.3 M NaCl, 10% glycerol, and 10 mM imidazole); RT was eluted with an imidazole gradient in wash buffer (0–0.5 M). Fractions were collected and protein purity was checked by SDS-PAGE and found to be higher than 90%. The 1:1 ration between the p66/p51 subunits was also verified. Enzyme-containing fractions were pooled and diluted 1:1 with 50 mM sodium phosphate buffer pH 7.0, containing 10% glycerol, and then loaded into a Hi-trap heparin HP GE (Healthcare Lifescience) using a loading buffer (50 mM sodium phosphate buffer pH 7.0, containing 10% glycerol and 150 mM NaCl). RT was eluted with Elute Buffer 2 (50 mM Sodium Phosphate pH 7.0, 10% glycerol, 1 M NaCl). Fractions were collected and protein was dialyzed and stored in a buffer containing 50 mM Tris-HCl pH 7.0, 25 mM NaCl, 1 mM EDTA, and 50% glycerol. Catalytic activities and protein concentrations were determined. Enzyme-containing fractions were pooled and aliquots were stored at −80 °C.
HIV RT-associated RNase H activity was measured as described (using the RNase H inhibitor RDS175911 as a control.) In a 100 µL reaction volume containing 50 mM Tris-HCl buffer with pH 7.8, 6 mM MgCl2, 1 mM dithiothreitol (DTT), 80 mM KCl, 0.25 µM hybrid RNA/DNA 5′-[…]-Fluorescin-3′ (HPLC, dry, QC: Mass Check) (available from Metabion (Planegg, Germany)) 5′-Dabcyl-[…]-3′ (HPLC, dry, QC: Mass Check), there were increasing concentrations of an inhibitor, whose dilution was made in water, and 20 ng of wt RT, according to a linear range of dose-response curve. The reaction mixture was incubated for 1 h at 37 °C, stopped by the addition of EDTA, and products were measured with a multilabel counter plate reader Victor 3 (Perkin Elmer model 1420-051 (Waltham, MA, USA)) equipped with filters for 490/528 nm (excitation/emission wavelength).

For assay [2], the target named is T2, HIV-1 IN in the presence of LEDGF/p75 (Human immunodeficiency virus type 1 group M subtype B, UniProt P04585).
T2 construct: Recombinant 6xHis tagged IN protein was expressed and purified as described previously; 6xHis; made in house; host or cells: Escherichia coli BL21 (DE3) for IN
As to the kind of experiment: HTRF LEDGF-dependent integrase assay. Format: biochemical. The settings on record: for IC50: concentration required to inhibit IN catalytic activities, in the presence of LEDGF, by 50%; for remaining activity at 100 µM: in the presence of 100 µM compound concentration, read-out: HIV-1 IN LEDGF-dependent percentage of control. As for the experimental part: Recombinant 6xHis tagged IN protein was expressed and purified as described previously. Briefly, IN was expressed in Escherichia coli strain BL21 (DE3). Initial purification was done using a Ni-Sepharose column with an imidazole gradient from 20 mM to 500 mM concentration in a 50 mM HEPES (pH 7.5) buffer containing 1 M NaCl, 7.5 mM CHAPS, and 2 mM β-mercaptoethanol. This was followed by a heparin column purification with a NaCl gradient from 0 to 1 M concentrations. His-LEDGF was purified by loading precipitate of cell lysate onto a heparin column and was eluted with an increasing NaCl gradient (200 mM to 1 M) in a 50 mM HEPES (pH 7.5) buffer containing 7.5 mM CHAPS and 2 mM β-mercaptoethanol. Peak fractions were pooled and loaded onto a Superdex 200 GL column and eluted in a buffer containing 50 mM HEPES (pH 7.5), 200 mM NaCl, and 2 mM β-mercaptoethanol. Fractions containing LEDGF were pooled and stored in 15% glycerol at −80 °C.
The HTRF assay allows measuring the inhibition of 3′-processing and strand-transfer IN reactions in the presence of recombinant LEDGF/p75 cellular cofactor [43]. Briefly, 50 nM IN was pre-incubated with an increasing concentration of compounds for 1 h at room temperature in reaction buffer containing 20 mM HEPES pH 7.5, 1 mM DTT, 1% Glycerol, 20 mM MgCl2, 0.05% Brij-35, and 0.1 mg/mL BSA. […] After the incubation, 4 nM of Europium-Streptavidin were added to the reaction mixture, and the HTRF signal was recorded using a Perkin Elmer Victor 3 plate reader using a 314 nm for the excitation wavelength and 668 and 620 nm for the wavelength of the acceptor and the donor substrate emission, respectively.
For orientation: TR-FRET usually uses a lanthanide donor and a delayed reading to cut background.

The next assay has as its system HIV-1 RT. The settings on record: cited from earlier work.
The mark [3] stands for this setting: in the presence of 100 µM compound concentration.

With `COC1C2C=COC(OC3OC(CO)C(O)C(O)C3O)C2C2(O)COC12` (stereo not shown) [Compound 5, trifoliatoside A], the IC50 (usually the concentration needed to halve the response being measured) in assay [1] is greater than 100 µM. In assay [1] (setting [3]), the remaining activity at 100 µM came out at 93%. Further, in assay [2], the “HIV-1 IN inhibition (in words)” value was “able to inhibit IN, selectively” and the IC50 was determined as 95.5 ± 4.5 µM.

On to `OC[C@H]1O[C@@H](O[C@@H]2OC=C[C@H]3[C@H](O)[C@@H]4O[C@]4(CO)[C@@H]23)[C@H](O)[C@@H](O)[C@@H]1O` [Compound 1, catalpol], for which the IC50 in assay [1] and in assay [2] was greater than 100 µM in each case. Besides, the remaining activity at 100 µM in assay [1] (setting [3]) and in assay [2] was 100% throughout.

On to `CCOC(=O)C(=O)CC(=O)/C=C/c1cccn1Cc1ccccc1Cl` [RDS1759, reference compound], for which the IC50 in assay [1] stood at 7.3 ± 0.1 µM.

Consider `C[C@]1(OC(=O)/C=C\c2ccccc2)C[C@@H](O)C2C=CO[C@@H](O[C@@H]3O[C@H](CO)[C@@H](O)[C@H](O)[C@H]3O)C21` (stereo partly shown) [Compound 13, trifoliatoside B], for which the figures for the IC50 in assay [1] and in assay [2] were greater than 100 µM and 5.96 ± 0.1 µM, respectively. Moreover, the remaining activity at 100 µM in assay [1] (setting [3]) came out at 92%.

`O=c1c(OC2O[C@H](CO)[C@@H](O)[C@H](O)[C@H]2O)c(-c2ccc(O)cc2)oc2cc(O)cc(O)c12` (stereo partly shown) [Compound 11, kaempferol-3-O-glucopyranoside]: the IC50 in assay [1] was greater than 100 µM; in assay [2] it was 0.11 µM and 0.024 µM. For the same compound, in assay [1] (setting [3]), the remaining activity at 100 µM was determined as 100%. The “HIV-1 IN inhibition (in words)” value in assay [2] is given as “submicromolar concentration”.

With `CO[C@H]1[C@@H]2C=CO[C@@H](O[C@@H]3O[C@H](CO)[C@@H](O)[C@H](O)[C@H]3O)[C@@H]2[C@@]2(CO)O[C@@H]12` [Compound 4, methylcatalpol], the concentration for half-maximal inhibition (IC50) in assay [1] and in assay [2] was greater than 100 µM throughout. The remaining activity at 100 µM in assay [1] (setting [3]) is 100%; in assay [2] it was 80%.

For `OCC1=C[C@@H](O)[C@@H]2C=CO[C@@H](O[C@@H]3O[C@H](CO)[C@@H](O)[C@H](O)[C@H]3O)[C@H]12` [Compound 2, aucubin], the IC50 in assay [1] and in assay [2] was greater than 100 µM each time. Also, the remaining activity at 100 µM in assay [1] (setting [3]) and in assay [2] was 100% in each case.

In the case of `C[C@]1(OC(=O)/C=C/c2ccccc2)C[C@@H](O)C2C=CO[C@@H](O[C@@H]3O[C@H](CO)[C@@H](O)[C@H](O)[C@H]3O)C21` (stereo partly shown) [Compound 12, laterioside], in assay [1], the “HIV-1 RNase H inhibition (in words)” value is “inactive” and the half-maximal inhibitory concentration (IC50) is greater than 100 µM. Further, the remaining activity at 100 µM in assay [1] (setting [3]) is 100%. Also, in assay [2], the “HIV-1 IN inhibition (in words)” value is “inactive”, the IC50 is greater than 100 µM and the remaining activity at 100 µM is 80%.

With `CO[C@H]1[C@@H]2C[C@@H]3OC[C@](O)([C@H]2[C@H](O[C@@H]2O[C@H](CO)[C@@H](O)[C@H](O)[C@H]2O)O3)[C@@H]1O` [Compound 6, methylscutelloside], the concentration for half-maximal inhibition (IC50) is greater than 100 µM in assay [1] and 100 ± 0.5 µM in assay [2]. Further, the remaining activity at 100 µM in assay [1] (setting [3]) is 100%.

Turning to `CC(=O)O[C@@]1(C)C[C@@H](O)C2C=CO[C@@H](O[C@@H]3O[C@H](CO)[C@@H](O)[C@H](O)[C@H]3O)C21` (stereo partly shown) [Compound 7, ajugoside], the IC50 in assay [1] is greater than 100 µM. In addition, the remaining activity at 100 µM in assay [1] (setting [3]) was 100%. Also, in assay [2], the “HIV-1 IN inhibition (in words)” value is “able to inhibit IN, selectively” and the IC50 was 74 ± 3.5 µM.

Take `CC1OC(Oc2cc(O)c3c(=O)c(OC4OC(CO)C(O)C(O)C4O)c(-c4ccc(O)cc4)oc3c2)C(O)C(O)C1O` (stereo not shown) [Compound 9, kaempferol-7-O-rhamnosyl-3-O-glucopyranoside]: the IC50 in assay [1] was greater than 100 µM. The remaining activity at 100 µM in assay [1] (setting [3]) amounted to 100%. Moreover, in assay [2], the “HIV-1 IN inhibition (in words)” value is “submicromolar concentration”; the IC50 is 0.024 µM and 0.11 µM.

Consider `C[C@@H]1O[C@@H](OC[C@H]2O[C@@H](Oc3c(-c4ccc(O)c(O)c4)oc4cc(O)cc(O)c4c3=O)[C@H](O)[C@@H](O)[C@@H]2O)[C@H](O)[C@H](O)[C@H]1O` [Compound 8, rutin], for which the IC50 in assay [1] was greater than 100 µM. The remaining activity at 100 µM in assay [1] (setting [3]) amounted to 100%. For the same compound, in assay [2], the “HIV-1 IN inhibition (in words)” value is “submicromolar concentration” and the IC50 turned out to be 0.33 ± 0.04 µM.

As for `C[C@]1(O)C[C@@H](O)[C@@H]2C=CO[C@@H](O[C@@H]3O[C@H](CO)[C@@H](O)[C@H](O)[C@H]3O)[C@@H]21` [Compound 3, ajugol], the IC50 in assay [1] and in assay [2] was greater than 100 µM each time. For the same compound, the values for the remaining activity at 100 µM in assay [1] (setting [3]) and in assay [2] were 100% and 77%, respectively.

Take `O=c1c(O)c(-c2ccc(O)cc2)oc2cc(O)cc(O)c12` [kaempferol]: the “HIV-1 RT IC50” value in the assay on HIV-1 RT (kaempferol from Securigera securidaca) was 50 µg/mL.

Consider kaempferol-3-O-rutinoside [Compound 10], for which the “HIV-1 RNase H percentage of control” value in assay [1] (setting [3]) was >100 (100%) ^c.

As to `O=C(O)[C@H]1O[C@@H](Oc2cc3oc(-c4ccccc4)cc(=O)c3c(O)c2O)[C@H](O)[C@@H](O)[C@@H]1O` [baicalin], the “HIV-1 RT IC50” value with HIV-1 RT (baicalin from Scutellaria baicalensis) is reported as 0.2 µg/mL.

Values taken from article PMC8398805, “Chemical Characterization and Anti-HIV-1 Activity Assessment of Iridoids and Flavonols from Scrophularia trifoliata” (Molecules, 2021).
